Patent publication US8519154B2, “Method for treatment of bronchial asthma” (Council of Scientific & Industrial Research, priority 2011, dated 2013)

Key:
[1] = tested on: OVA sensitized and challenged mice, lung sections; assay: Histological analysis of lung inflammation in mouse model of asthma; format: in vivo; conditions: H&E lung sections
Experimental: To determine the effect of Compound I on airway inflammation, histopathological analysis of formalin fixed, paraffin embedded lung sections was performed. The excised lung portion was fixed in 10% buffered formalin. The fixed, paraffin embedded tissue were sectioned into 4 μm sections and stained with Hematoxylin & Eosin (H&E) to assess inflammation

mice [2] = assay: Analgesic activity by hot plate method; format: in vivo
Experimental: Analgesic activity was carried out by Hot Plate method. The response time for paw licking or jumping on the heated plate of analgesiometer (55±1° C.). (Socrel, Ugo Basile, Italy) was taken as the reaction time. A comparison of reaction time (in seconds) between control (untreated) and Compound I treated mice was made for a group of 6 animals in each test group [Eddy, N B., Leimbach, D., Synthetic analgesics, II. Dithienylbutenyl- and dithienylbutylamines. J. Pharmacol. Exp. Ther. 107 (1953) 385-393].
The time for hind paw licking or jumping on the heated plate of analgesiometer (Socrel, ugo basile, Italy) was taken as the reaction time.

mice [3] = assay: Electric shock induced convulsions; format: in vivo, Swiss mice
Experimental: Convulsion were induced by a single electroshock (50 Hz in frequency, 0.5 ms pulse width, 50 mA current for 0.3 s) applied through bi-polar electrodes attached to the ear pinna on both side using a pulse generator (Ugo Basile, Italy). The convulsive activity (determined by loss of tonic extensor seizure) was recorded in control (untreated) and Compound I were treated (before electro-shock application) animals [Achliya, G S, Wadodkar, S G, Darle, A K., Evaluation of CNS activity of Bramhi Ghrita. Indian J. Pharmacol. 37 (2005) 33-36].
Anti-convulsant activity was measured by electric shock induced seizure. Five Swiss mice were used for one dose of drug. Convulsion were induced by a single electroshock (50 Hz in frequency, 0.5 ms pulse width, 50 mA current for 0.3 s) applied through bi-polar electrodes attached to the ear pinna on both side by a pulse generator (Ugo Basile, Italy) Test drug were administered orally 60 min before electroshock application, and convulsive activity was determined by loss of tonic extensor seizure.

mice [4] = assay: Charcoal meal transit time; format: in vivo
Experimental: […] charcoal suspension (20 ml/kg prepared as a 5% solution in 10% gum acacia) was administered perorally 60 min after D8 administration (perorally). After 30 min, charcoal meal administration small intestines were excised and aligned parallel to a ruler. Ratio of the distance traveled by the charcoal meal to the total length of the small intestine was determined for the control (untreated) and Compound I treated mice [Ali, B. H. Bashir, A A. The effect of alpha 2-receptor agonists and antagonists on gastro-intestinal transit time. Clinical and Experimental Pharmacology and Physiology, 20 (1993) 1-6].

rats = assay: Bile secretion; format: in vivo
Experimental: Rats were anaesthetized with urethane (25% w/v; 0.6 ml/100 g bw, ip). A catheter was placed in the jugular vein for Compound I administration. Abdominal cavity was opened by midline incision and the common bile duct was cannulated to measure the biliary secretion which was collected over 2 hours duration. The total bile excreted was compared between control (untreated) and Compound I treated rats [Shetler, T., Bendele, A., Buening, M., Clemens, J., Colbert, W., Deldar, A., Helton, D., Mc Grath J., Shannon, H., Turk, J., Williams, P., General Pharmacology of Loracarbef in Animals. Arzneim-Forsch./Drug Res. 43 (1993) 1-6].

[5] = Crossing of the intestinal barrier; format: in vitro ADME
CYP 3A4 (liver) = CYP 3A4 (liver) (Homo sapiens, UniProt P08684); assay: Metabolism by CYP 3A4; format: in vitro ADME
CYP 3A4 (liver), sequence (P08684 whole entry, species assumed): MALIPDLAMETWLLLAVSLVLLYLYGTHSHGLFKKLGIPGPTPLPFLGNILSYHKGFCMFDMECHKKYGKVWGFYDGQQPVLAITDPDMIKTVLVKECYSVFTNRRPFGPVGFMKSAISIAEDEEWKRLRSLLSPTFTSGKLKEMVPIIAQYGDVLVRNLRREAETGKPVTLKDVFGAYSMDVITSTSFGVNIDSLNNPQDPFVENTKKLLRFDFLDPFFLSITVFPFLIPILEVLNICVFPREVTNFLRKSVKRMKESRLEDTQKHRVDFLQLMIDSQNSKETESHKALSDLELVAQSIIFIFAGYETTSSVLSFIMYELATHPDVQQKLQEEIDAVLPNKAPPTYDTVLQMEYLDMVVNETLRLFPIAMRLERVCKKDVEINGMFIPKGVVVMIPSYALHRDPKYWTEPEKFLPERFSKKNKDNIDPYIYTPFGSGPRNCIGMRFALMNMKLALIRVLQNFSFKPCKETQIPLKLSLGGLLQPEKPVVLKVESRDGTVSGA

Lipophilicity = format: physicochemical
Plasma binding = format: in vitro ADME

In the case of `COc1cc(C=O)cc2c1[nH]c1ccccc12` [Compound I, 1-methoxy-3-formyl-9H carbazole], the “perivascular and peribronchial inflammation” value [1] is reported as “reduced both perivascular and peribronchial inflammation in a dose dependent manner”, the “Reaction time” value (mice [2]; 12.5 mg/kg p.o., 0 hr) is reported as 11.08 ± 1.60 s and the “Reaction time” value (mice [2]; 12.5 mg/kg p.o., 1 hr) is reported as 10.62 ± 1.64 s. The “Reaction time” value (mice [2]; 25 mg/kg p.o., 0 hr) was 13.58 ± 2.15 s, the “Reaction time” value (mice [2]; 25 mg/kg p.o., 1 hr) was 14.62 ± 4.67 s and the “Reaction time” value (mice [2]; 50 mg/kg p.o., 0 hr) was 14.38 ± 1.87 s. For the same molecule, the “Reaction time” value (mice [2]; 50 mg/kg p.o., 1 hr) was 14.34 ± 1.07 s, the “change in the reaction time on a hot plate” value (mice [2]; 12.5, 25 and 50 mg/kg orally, 55±1° C.) was “did not show any significant change in the reaction time” and the “Convulsions Clonic” value (mice [3]; 12.5 mg/kg p.o.) was 5/5. The “Convulsions Tonic” value (mice [3]; 12.5 mg/kg p.o.) was 5/5, the Mortality (mice [3]; 12.5 mg/kg p.o.) was 1/5 and the “Convulsions Clonic” value (mice [3]; 50 mg/kg p.o.) was 5/5. The “Convulsions Tonic” value (mice [3]; 50 mg/kg p.o.) was 5/5, the Mortality (mice [3]; 50 mg/kg p.o.) was 0/5 and the “Convulsions Clonic” value (mice [3]; 100 mg/kg p.o.) was 5/5. For the same molecule, the “Convulsions Tonic” value (mice [3]; 100 mg/kg p.o.) was 5/5, the Mortality (mice [3]; 100 mg/kg p.o.) was 0/5 and the anti-convulsant activity (mice [3]; 12.5, 25 and 50 mg/kg orally) was “no anti-convulsant activity”. For the same molecule, the “% Transport (Mean ± SEM)” value (mice [4]; 12.5 mg/kg p.o.) was 74.15 ± 3.4%, the “% Transport (Mean ± SEM)” value (mice [4]; 25 mg/kg p.o.) was 76.6 ± 6.7% and the “% Transport (Mean ± SEM)” value (mice [4]; 50 mg/kg p.o.) was 77.12 ± 1.49%. The “change in charcoal powder transporting ratio vs control” value (mice [4]; 12.5, 25 and 50 mg/kg) was “no significant change in charcoal powder transporting ratio”, the “Bile (grams ± SEM) After” value (rats; 25 mg/kg i.v.) was 1.390 ± 0.06 grams and the “Bile (grams ± SEM) Before” value (rats; 25 mg/kg i.v.) was 1.285 ± 0.049 grams. The “Bile (grams ± SEM) After” value (rats; 50 mg/kg i.v.) was 1.125 ± 0.125 grams, the “Bile (grams ± SEM) Before” value (rats; 50 mg/kg i.v.) was 1.305 ± 0.145 grams and the “change in the mass of bile collected” value (rats; 25 and 50 mg/kg intravenously) was “no significant change in the mass of bile collected”. For the same molecule, the “crosses the intestinal barrier” value [5] was “largely by passive diffusion”, the metabolism (CYP 3A4 (liver)) was “metabolized by CYP 3A4 (liver)” and the lipophilicity (Lipophilicity) was “highly lipophilic”. For the same molecule, the plasma binding (Plasma binding) was “high plasma binding”.
